Values quoted from earlier work, collected in patent US20180318246A1 (SUN PHARMACEUTICAL INDUSTRIES LIMITED, priority 2015, published 2018).
Counter-ions that a name gives are not always drawn.

- Permeability coefficient compared with monomethyl fumarate: significantly higher
SMILES: COC(=O)/C=C/C(=O)OC [dimethyl fumarate]
